Data: the NIST ThermoML archive (doi:10.1021/acs.jced.7b00002)

Assay: xn = mol fraction of the nth substance listed
Settings: 97.6 kPa, Liquid; for viscosity: Capillary tube (Ostwald / Ubbelohde) method; for mass density: Vibrating tube method

CCCCCCCC[n+]1ccn(C)c1.[Cl-] [1-methyl-3-octylimidazolium chloride] + c1ccncc1
Settings | mass density [kg/m3] | viscosity [mPa·s]
303.15 K, x1 = 0.128 | 988.9 | 3.46
303.15 K, x1 = 0.255 | 998.25 | 12.71
303.15 K, x1 = 0.339 | 1000.33 | 29.41
303.15 K, x1 = 0.445 | 1002.78 | 84.05
303.15 K, x1 = 0.578 | 1004.43 | 290.77
303.15 K, x1 = 0.755 | 1005.83 | 863.91
303.15 K, x1 = 0.865 | 1005.51 | 2828.1
303.15 K, x1 = 1 | 1006.2 | 7339.7
308.15 K, x1 = 0.128 | 984.71 | 3.11
308.15 K, x1 = 0.255 | 994.55 | 10.87
308.15 K, x1 = 0.339 | 996.84 | 24.13
308.15 K, x1 = 0.445 | 999.45 | 65.58
308.15 K, x1 = 0.578 | 1001.29 | 215.57
308.15 K, x1 = 0.755 | 1002.79 | 599.38
308.15 K, x1 = 0.865 | 1002.58 | 1823.5
308.15 K, x1 = 1 | 1003.33 | 4272.9
313.15 K, x1 = 0.128 | 980.51 | 2.81
313.15 K, x1 = 0.255 | 990.84 | 9.39
313.15 K, x1 = 0.339 | 993.34 | 20.12
313.15 K, x1 = 0.445 | 996.14 | 51.96
313.15 K, x1 = 0.578 | 998.15 | 161.31
313.15 K, x1 = 0.755 | 999.79 | 426
313.15 K, x1 = 0.865 | 999.66 | 1210.7
313.15 K, x1 = 1 | 1000.48 | 2766.9
318.15 K, x1 = 0.128 | 976.31 | 2.56
318.15 K, x1 = 0.255 | 987.14 | 8.17
318.15 K, x1 = 0.339 | 989.85 | 16.97
318.15 K, x1 = 0.445 | 992.85 | 42.02
318.15 K, x1 = 0.578 | 995.01 | 123.18
318.15 K, x1 = 0.755 | 996.82 | 309.61
318.15 K, x1 = 0.865 | 996.75 | 829.67
318.15 K, x1 = 1 | 997.64 | 1788.6
323.15 K, x1 = 0.128 | 972.1 | 2.34
323.15 K, x1 = 0.255 | 983.45 | 7.17
323.15 K, x1 = 0.339 | 986.38 | 14.49
323.15 K, x1 = 0.445 | 989.57 | 34.4
323.15 K, x1 = 0.578 | 991.88 | 96.06
323.15 K, x1 = 0.755 | 993.86 | 230.68
323.15 K, x1 = 0.865 | 993.8 | 583.82
323.15 K, x1 = 1 | 994.82 | 1198.7
328.15 K, x1 = 0.128 | 967.86 | 2.15
328.15 K, x1 = 0.255 | 979.75 | 6.34
328.15 K, x1 = 0.339 | 982.9 | 12.56
328.15 K, x1 = 0.445 | 986.28 | 28.53
328.15 K, x1 = 0.578 | 988.75 | 75.98
328.15 K, x1 = 0.755 | 990.9 | 174.4
328.15 K, x1 = 0.865 | 990.92 | 419.77
328.15 K, x1 = 1 | 992 | 828.3
333.15 K, x1 = 0.128 | 963.58 | 1.98
333.15 K, x1 = 0.255 | 976.06 | 5.65
333.15 K, x1 = 0.339 | 979.42 | 10.81
333.15 K, x1 = 0.445 | 983 | 23.98
333.15 K, x1 = 0.578 | 985.64 | 61.06
333.15 K, x1 = 0.755 | 987.95 | 134.84
333.15 K, x1 = 0.865 | 988.06 | 309.69
333.15 K, x1 = 1 | 989.17 | 588.69
338.15 K, x1 = 0.128 | 959.29 | 1.83
338.15 K, x1 = 0.255 | 972.37 | 5.06
338.15 K, x1 = 0.339 | 975.93 | 9.51
338.15 K, x1 = 0.445 | 979.67 | 20.37
338.15 K, x1 = 0.578 | 982.53 | 49.81
338.15 K, x1 = 0.755 | 984.99 | –
338.15 K, x1 = 0.865 | 985.22 | 233.02
338.15 K, x1 = 1 | 986.38 | 426.28
343.15 K, x1 = 0.128 | 955.03 | 1.7
343.15 K, x1 = 0.255 | 968.68 | 4.56
343.15 K, x1 = 0.339 | 972.4 | 8.37
343.15 K, x1 = 0.445 | 976.42 | 17.42
343.15 K, x1 = 0.578 | 979.44 | 41.06
343.15 K, x1 = 0.755 | 982.04 | 84.08
343.15 K, x1 = 0.865 | 982.37 | 177.92
343.15 K, x1 = 1 | 983.63 | 316.66
348.15 K, x1 = 0.128 | 950.66 | 1.58
348.15 K, x1 = 0.255 | 965 | 4.13
348.15 K, x1 = 0.339 | 968.9 | 7.4
348.15 K, x1 = 0.445 | 973.05 | 15.01
348.15 K, x1 = 0.578 | 976.36 | 34.18
348.15 K, x1 = 0.755 | 979.11 | 68.04
348.15 K, x1 = 0.865 | 979.56 | 138.26
348.15 K, x1 = 1 | 980.88 | 237.14
353.15 K, x1 = 0.128 | 946.27 | 1.48
353.15 K, x1 = 0.255 | 961.31 | 3.76
353.15 K, x1 = 0.339 | 965.27 | 6.63
353.15 K, x1 = 0.445 | 969.48 | 13.03
353.15 K, x1 = 0.578 | 973.29 | 28.74
353.15 K, x1 = 0.755 | 976.18 | 55.2
353.15 K, x1 = 0.865 | 976.69 | 108.95
353.15 K, x1 = 1 | 978.13 | 181.41
